Experimental findings from the NIST ThermoML archive (doi:10.1021/je049903o) are described below.

± gives the expanded uncertainty stated by the source.

The conditions of the data set: 298.15 K; 101.33 kPa; Liquid.
With `COCCOCCOCCOCCOC` [2,5,8,11,14-pentaoxapentadecane], the mass density turned out to be 1007.12 ± 0.53 kg/m3. Take `COCCOCCOCCOC` [2,5,8,11-tetraoxadodecane]: the mass density was 980.625 ± 0.52 kg/m3. Turning to `CCCCCCCCCC` [decane], the mass density was 726.357 ± 0.83 kg/m3. As for `CCCCCCC` [heptane], the mass density was 679.542 ± 0.45 kg/m3. For `CCCCCCCC` [octane] the value was 698.548 ± 0.53 kg/m3; for `CCCCCCCCCCCCCC` [tetradecane], 759.274 ± 0.51 kg/m3.

The mass density is the mass of a sample divided by its volume.
